Holding throughout (format): physicochemical
The nature of data set [1]: Particle size distribution (PSD) by laser diffraction, Malvern Mastersizer 3000. The protocol: (§1) Three precipitation runs (approximately 600-700 mg) were conducted on the RC612B precipitation unit, according to the examples provided on the preceding pages. Solvent was the single variable modified between each group of three precipitations. The precipitates were analyzed by laser diffraction to determine PSD, BET sorptometry to determine SSA, SEM to determine habit and support PSD and SSA data, and PXRD to determine crystalline/amorphous form.
PSD analyses were conducted on a Malvern Mastersizer™ 3000 using the Aero S dispersion unit according to the manufacturer instructions.

Data set [2] is described as follows: Shake-flask solubility in organic solvent/water mixtures. The note with it: for Concentration of Sorafenib Found: 24 hours, 20-25° C. The protocol: This method was conducted in acidic media. Development of a discriminating dissolution method at neutral pH (6.8 to 7.4) was pursued, as relevant for potential intra-tumoral delivery of the drug. The addition of organic solvents was used to increase the solubility of the compounds at neutral pH.
Solubility was determined by using a shake-flask method. The drug was added in excess to each solution prepared in duplicate. The vials were placed on a mechanical shaker for 24 hours at 20-25° C. After shaking, solution was removed and filtered through a 0.2 μm PTFE syringe filter and analyzed by UV/Visible spectrophotometry.

Data set [3] in a line: Specific surface area (SSA) by BET sorptometry. As to the method: As used herein, the “specific surface area” is the total surface area of the sorafenib particle per unit of sorafenib mass as measured by the Brunauer—Emmett—Teller (“BET”) isotherm (i.e.: the BET SSA). As will be understood by those of skill in the art, the SSA is determined on a per gram basis and takes into account both agglomerated and non-agglomerated sorafenib particles in the composition. The BET specific surface area test procedure is a compendial method included in both the United States Pharmaceopeia and the European Pharmaceopeia.
as §1
SSA determination analyses were conducted on a Quantachrome NOVAtouch™ LX^2 BET Sorptometer or a Porous Materials, Inc., Automated BET Sorptometer BET-202A according to the manufacturer instructions.

The results in this text go back to patent US20230364021A1 (CRITITECH, INC., priority 2020, published 2023).

Regarding `CNC(=O)c1cc(Oc2ccc(NC(=O)Nc3ccc(Cl)c(C(F)(F)F)c3)cc2)ccn1` [Sorafenib, 4-(4-((((4-Chloro-3-(trifluoromethyl)phenyl)amino)carbonyl)amino)phenoxy)-N-methyl-2-pyridinecarboxamide], the “PSD: Volume Dv-10” value in data set [1] is recorded as 12.3 μm. Moreover, the “Concentration of Sorafenib Found” value in data set [2] (Ethanol, water to organic solvent ratio 25/75) is 553 µg/mL; in data set [2] (Ethanol, water to organic solvent ratio 50/50) it was 325 µg/mL; in data set [2] (Methanol, water to organic solvent ratio 25/75), 503 µg/mL; in data set [2] (Methanol, water to organic solvent ratio 50/50), 41.4 µg/mL; in data set [2] (Methanol, water to organic solvent ratio 75/25), 2.45 µg/mL. In data set [2] (methanol/water and ethanol/water, both solvents), the “Solubility versus organic solvent concentration” value was “concentration dependent solubility”. The SSA in data set [3] (listed as Raw) stood at 1.02 m^2/g; in data set [3] (listed as unprocessed material) it was 0.88 m^2/g.
